# Measurements: patent US7601709
# Read-outs that look alike come from different tables or passages of the source.
# Details: rcm bond, 40.0 °C
structure (smiles),measurement,setting,value
CCOC(=O)[C@@]12C[C@H]1C=CCCCCC[C@H](NC(=O)OC(C)(C)C)C(=O)N1C[C@@H](O)C[C@H]1C(=O)N2,"ring closure, yield of all isomers","from C=CCCCCC[C@H](NC(=O)OC(C)(C)C)C(=O)N1C[C@@H](O)C[C@H]1C(=O)N[C@]1(C(=O)OCC)C[C@H]1C=C, Hoveyda 1st generation catalyst, DCM, 14.45 mM, 12.0 h",87%
CCOC(=O)[C@@]12C[C@H]1C=CCCCCC[C@H](NC(=O)OC(C)(C)C)C(=O)N1C[C@H](n3nnc(-c4ccccc4)n3)C[C@H]1C(=O)N2,"ring closure, yield of all isomers","from C=CCCCCC[C@H](NC(=O)OC(C)(C)C)C(=O)N1C[C@H](n2nnc(-c3ccccc3)n2)C[C@H]1C(=O)N[C@]1(C(=O)OCC)C[C@H]1C=C, Hoveyda catalyst, DCM, 2.18 mM, 20.0 h",85.5%
CCOC(=O)[C@@]12C[C@H]1C=CCCCCC[C@H](NC(=O)OC(C)(C)C)C(=O)N1C[C@H](c3nnn(Cc4ccc(-c5ccccc5)cc4)n3)C[C@H]1C(=O)N2,"ring closure, yield of all isomers","from C=CCCCCC[C@H](NC(=O)OC(C)(C)C)C(=O)N1C[C@H](c2nnn(Cc3ccc(-c4ccccc4)cc3)n2)C[C@H]1C(=O)N[C@]1(C(=O)OCC)C[C@H]1C=C, Hoveyda's catalyst, CH2Cl2, 10.0 mM, 16.0 h",91.3%
